Our source for the IC50 and IC90 values is publication PMC11963564 (Antimicrobial Agents and Chemotherapy, 2025).

The test system of one test is SARS-CoV-2 Omicron BA.1. In words: microbe, parasite or virus in culture. Format: cell-based.
The next test has as its system SARS-CoV-2 Omicron BA.4. In words: microbe, parasite or virus in culture. Format: cell-based.
The subject of the next test is SARS-CoV-2 Omicron BA.5. Put plainly: microbe, parasite or virus in culture. Format: cell-based.
Test [1] deals with SARS-CoV-2 Omicron CH.1.1. Put plainly: microbe, parasite or virus in culture. The format is cell-based.
For test [2], the system named is SARS-CoV-2 Omicron XBB.1.5. In words: microbe, parasite or virus in culture. The format is cell-based.
The subject of test [3] is SARS-CoV-2 Omicron XBB.1.16. In words: microbe, parasite or virus in culture. The format is cell-based.
A further test relates to SARS-CoV-2 Omicron EG.5. In words: microbe, parasite or virus in culture. The format is cell-based.
The test system of another test is SARS-CoV-2 Omicron JN.1. Put plainly: microbe, parasite or virus in culture. Format: cell-based.
The test system of the next test is SARS-CoV-2 WIV04. To be noted: cited from earlier work.
Another test deals with SARS-CoV-2 Delta. The note with it: cited from earlier work.
[4] abbreviates: Severe acute respiratory syndrome coronavirus 2, Vero C1008, 48 h.
Where [5] appears, read: Severe acute respiratory syndrome coronavirus 2, Vero C1008, 72 h.

Where two headings read alike, the source gives them in different places.

With `CC(C)(C)[C@H](NC(=O)C(F)(F)F)C(=O)N1C[C@H]2[C@@H]([C@H]1C(=O)N[C@H](C#N)C[C@@H]1CCNC1=O)C2(C)C` [nirmatrelvir, reference compound], the half-inhibitory concentration (IC50) (usually the concentration at which inhibition is half-maximal) amounted to 57 ± 12 nM in the test with SARS-CoV-2 Omicron BA.1 (setting [4]); 72 ± 13 nM with SARS-CoV-2 Omicron BA.4 (setting [4]); 90 ± 38 nM in the test with SARS-CoV-2 Omicron BA.5 (setting [4]); 26 ± 21 nM in [1] (setting [4]); 22 ± 14 nM in [2] (setting [4]); 101 ± 23 nM in [3] (setting [5]). Moreover, the figures for the IC50 with SARS-CoV-2 Omicron EG.5 (setting [5]) and in the test on SARS-CoV-2 Omicron JN.1 (setting [5]) were 98 ± 26 nM and 98 ± 27 nM, respectively. Besides, the IC90 (usually the point of the concentration-response curve where the effect stands at 90%) is 142 ± 61 nM in the test with SARS-CoV-2 Omicron BA.1 (setting [4]); 157 ± 77 nM with SARS-CoV-2 Omicron BA.4 (setting [4]); 341 ± 140 nM with SARS-CoV-2 Omicron BA.5 (setting [4]); 59 ± 26 nM in test [1] (setting [4]); 84 ± 39 nM in [2] (setting [4]); 262 ± 140 nM in test [3] (setting [5]). Besides, the IC90 in the test on SARS-CoV-2 Omicron EG.5 (setting [5]) was found to be 617 ± 170 nM; in the test on SARS-CoV-2 Omicron JN.1 (setting [5]) it was 469 ± 183 nM.

As to simnotrelvir, the IC50 in the test on SARS-CoV-2 Omicron BA.1 (read-out: IC50) came to 148 ± 62 nM; in the test with SARS-CoV-2 Omicron BA.4 (read-out: IC50), 189 ± 6 nM; in the test on SARS-CoV-2 Omicron BA.5 (read-out: IC50), 208 ± 55 nM; in [1] (read-out: IC50), 65 ± 6 nM; in test [2] (read-out: IC50), 82 ± 58 nM; in test [3] (read-out: IC50), 130 ± 20 nM. The IC50 was 174 ± 97 nM in the test on SARS-CoV-2 Omicron EG.5 (read-out: IC50), 124 ± 31 nM in the test with SARS-CoV-2 Omicron JN.1 (read-out: IC50), 26 nM with SARS-CoV-2 WIV04 and 34 nM with SARS-CoV-2 Delta. The IC90 with SARS-CoV-2 Omicron BA.1 (read-out: IC90) came to 267 ± 82 nM; in the test on SARS-CoV-2 Omicron BA.4 (read-out: IC90), 250 ± 67 nM; in the test with SARS-CoV-2 Omicron BA.5 (read-out: IC90), 449 ± 171 nM; in [1] (read-out: IC90), 99 ± 52 nM; in test [2] (read-out: IC90) it was 254 ± 111 nM; in test [3] (read-out: IC90), 230 ± 93 nM. The 90% effect concentration (IC90) with SARS-CoV-2 Omicron EG.5 (read-out: IC90) was determined as 803 ± 236 nM; in the test on SARS-CoV-2 Omicron JN.1 (read-out: IC90), 684 ± 188 nM.
